Measurements from patent US10604473B2, “Lipids that increase insulin sensitivity and methods of using the same” (Beth Israel Deaconess Medical Center, Inc., priority 2013, dated 2020).

Tests used:
purified CEL = molecular target: T1, purified CEL (Homo sapiens, UniProt P19835); assay: FAHFA hydrolysis by purified CEL; type: biochemical; settings: micellar concentrations of NaTC
T1 construct: purchased R&D Systems
T1 sequence (P19835 21-753): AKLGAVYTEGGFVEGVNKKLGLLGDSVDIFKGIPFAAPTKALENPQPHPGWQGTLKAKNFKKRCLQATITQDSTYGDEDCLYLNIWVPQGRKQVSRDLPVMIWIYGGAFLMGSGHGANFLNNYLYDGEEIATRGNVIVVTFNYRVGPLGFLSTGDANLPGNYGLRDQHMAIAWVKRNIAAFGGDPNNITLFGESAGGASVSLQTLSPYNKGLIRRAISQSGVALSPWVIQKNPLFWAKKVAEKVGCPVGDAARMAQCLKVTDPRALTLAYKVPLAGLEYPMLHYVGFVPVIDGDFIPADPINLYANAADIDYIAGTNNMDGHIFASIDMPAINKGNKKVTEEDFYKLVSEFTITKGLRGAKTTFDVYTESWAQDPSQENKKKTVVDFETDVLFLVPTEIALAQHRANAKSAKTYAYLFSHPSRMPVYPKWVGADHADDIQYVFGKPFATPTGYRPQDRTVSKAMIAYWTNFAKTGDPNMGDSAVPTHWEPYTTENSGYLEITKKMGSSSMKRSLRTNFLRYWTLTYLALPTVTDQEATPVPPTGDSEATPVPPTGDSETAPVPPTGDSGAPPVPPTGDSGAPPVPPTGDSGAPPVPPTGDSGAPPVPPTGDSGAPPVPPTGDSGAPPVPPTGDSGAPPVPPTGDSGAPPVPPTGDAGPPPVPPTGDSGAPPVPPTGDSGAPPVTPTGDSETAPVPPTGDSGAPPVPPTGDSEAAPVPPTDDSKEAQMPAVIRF
Description: To confirm the identification of CEL as a FAHFA hydrolase, a small amount of purified enzyme (available commercially from R&D Systems) was used.

isolated rat islets = assay: Insulin release in isolated rat islets; type: cell-based; settings: 25 mM glucose in the media
Protocol: Ins1 cells (FIG. 21) or primary rat islet cells (FIG. 22) were seeded in 24 well-plates [˜10^6 cells/well]. At confluence, cells were incubated with Low Serum [2.5%] and Low Glucose [2.5 mM] media for 12 hours. Next, cells were incubated with KRB buffer for 1 h and stimulated with glucose in the presence of 5-PAHSA (FIG. 21) or 9-PAHSA (FIG. 21) for 45 min in KRB. At the end of the stimulation, 100 μL of media was collected and 10 μL was used to quantitate the amount of insulin released by ELISA. Treatment Conditions for FIGS. 21 and 22 were: • 5-PAHSA or 9-PAHSA [Stock]=20.0 mM [10.76 mg/mL Methanol] • A] 1 uM=0.3 uL/6 mL [Amount of methanol/mL=0.05 uL] • B] 5 uM=1.5 uL/6 mL [Amount of methanol/mL=0.25 uL] • C] 10 uM=3.0 uL/6 mL [Amount of methanol/mL=0.50 uL] • D] 20 uM=6.0 uL/6 mL [Amount of methanol/mL=1.00 uL] […]
Isolated rat islets were cultured overnight in RPMI 1640 medium containing 2.5 mM glucose and 2.5% fetal bovine serum supplemented with 100 IU/ml penicillin and 100 IU/ml streptomycin, 1 mM sodium pyruvate, and 10 mM HEPES (pH 7.4). […] At the end of the stimulation supernatant was collected and insulin released into the medium was quantified by ELISA as per manufacturer's protocol. The islets were lysed and protein content was measured and the amount of insulin released into the media was quantitated as ng/mL/μg of protein.

Human islets = assay: Glucose-stimulated insulin secretion in primary human islets; type: cell-based
Protocol: Two human donors provided cells used in these studies. Donor1 was a person, 5′0″, 157 lbs, with a BMI of 30.5, HbA1C was 5.8, who died from a stroke, but it was witnessed and they had no downtime. Islets were 80% pure and 95% viable. After arrival, islets were incubated overnight in human islet media before stimulation with glucose in presence and absence of 5-PAHSA (lipid A-5). Note 1 IU of Human Insulin=6 nmol=34.8 μg Insulin.
Human islets were divided into ten groups [100 islets per condition]
A] Low glucose [2.5 mM]; B] High glucose [20.0 mM]; C] Low glucose [2.5 mM]+2.5 μL/mL Methanol; D] High glucose [20.0 mM]+2.5 μL/mL Methanol; E] Low glucose+20 μM Lipid A-5; F] High glucose+20 μM Lipid A-5; G] Low glucose+50 μM Lipid A-5; H] High glucose+50 μM Lipid A-5.
Islets were cultured overnight in Human Islet media and next day incubated with KRB buffer for 4 h prior to glucose stimulation.
Following KRB incubation, islets were stimulated with glucose [2.5 mM & 20.0 mM] in the presence and absence of Lipid A-5 [20 & 50 μM] for 45 min
At the end of glucose stimulation the amount of insulin released [μ IU/mL] into the media was measured using Human Insulin ELISA kit. And the insulin content from the islets were extracted to express insulin released into the media as μ IU/mL/islet content.
Donor 2 was a person, 183 cm, 176 lbs, with a BMI of 23.9, HbA1C was 5.0, died from a stroke, but it was witnessed and they had no downtime. Islets were 85% pure and 95% viable. After arrival, islets were incubated overnight in human islet media before stimulation with glucose in presence and absence of 5-PAHSA (Lipid A-5).
Human islets were divided into […] [75 islets per condition]: A] Low glucose [2.5 mM]; B] High glucose [20.0 mM]; C] Low glucose [2.5 mM]+2.5 μL/mL Methanol; D] High glucose [20.0 mM]+2.5 μL/mL Methanol; E] Low glucose+20 μM Lipid A-5; F] High glucose+20 μM Lipid A-5.
Following KRB incubation, islets were stimulated with glucose [2.5 mM & 20.0 mM] in the presence and absence of Lipid A-5 [20 μM] for 45 min.

| Structure (SMILES) | hydrolysis of 9-PAHSA (9-HSA production) (purified CEL) | glucose-stimulated insulin secretion (isolated rat islets) | insulin secretion (Human islets; 2.5 mM glucose, 5-PAHSA 20 μM) | insulin secretion response (Human islets; 20 mM glucose, 5-PAHSA 20 μM) | Glucose Stimulated Insulin Secretion (Human islets; Donor 1) | Glucose Stimulated Insulin Secretion (Human islets; Donor 2) |
| --- | --- | --- | --- | --- | --- | --- |
| CCCCCCCCCCCCCCCC(=O)OC(CCCCCCCCC)CCCCCCCC(=O)O (stereo not drawn) [9-PAHSA, palmitoyl-9-hydroxystearic acid] | substantial hydrolysis | – | – | – | – | – |
| CCCCCCCCCCCCCCCC(=O)OC(CCCCCCCCCCCCC)CCCC(=O)O (stereo not drawn) [5-PAHSA] | – | potentiates glucose-stimulated insulin secretion | had no effect on insulin secretion | augmented the insulin secretion response | induces Glucose Stimulated Insulin Secretion | induces Glucose Stimulated Insulin Secretion |
